In data set [1] the test system is isolated (Langendorff) rat hearts. Description: Isolated perfused heart (Langendorff), hypoxic vs oxic uptake/retention. The note with it: for Hypoxic/Oxic Ratio (H/O): ^99m Tc complex (or ^123 I-IAZA), 20 min infusion, 15 min washout; for normalised hypoxic retention, times greater than ^3 H misonidazole: isolated buffer perfused rat heart model; for Normalised Hypoxic Retention: relative to ^3 H-misonidazole activity. Here is the method:
A 15-minute cold buffer washout period follows. y activity in the heart is monitored using a collimated NaI probe detector positioned over the heart.
Activity in hearts, relative to perfusate activity, is calculated for each nuclide and data evaluated for each compound for activity in hypoxic and oxic hearts (hypoxic:oxic ratio) and also relative to the 3 H-misonidazole activity (normalised retention) using Formula 1. [formula] Results

Data set [2] has as its system xanthine oxidase. The experiment in a line: Xanthine oxidase (XOD) with hypoxanthine in PBS reduction test. The format is biochemical. The note with it: ^99m Tc complex, HPLC. As to the method: b) Xanthine Oxidase (XOD) with Hypoxanthine in Phosphate Buffered Saline (PBS)
Xanthine oxidase (16 mg) was weighed into a P6 vial. the vial was capped, oversealed and purged with nitrogen gas. Nitrogen purged phosphate buffered saline (1 ml) was added to the vial containing the xanthine oxidase.
Hypoxanthine (4.1 mg) was weighed into a P6 vial. The vial was capped, oversealed and purged with nitrogen gas. To the hypoxanthine was added (1 ml) of the xanthine oxidase in PBS.
1 ml of the ligand solution or 1 ml of the ^99m Tc-complex preparation was then added to the reducing mixture, shaken, and aliquots were taken at 20 minute time intervals.

The nature of data set [3]: Biodistribution in rats. The data set is classed as in vivo, male rats. The note with it: i.v. Here is the method: Biodistribution in Rats--Methods
The quantitative biodistribution was studied in male rats at 2 minutes, 1 hour and 4 hours post-injection
Rats under light anaesthesia were injected intravenously with 0.1 ml of test agent. Three rats were sacrificed (anaesthesia followed by exsanguination) at 2, 60 and 240 minutes, post-injection. The percentage of the injected dose in the excreta and organs and tissues was determined by dissection and assay for radioactivity in an automatic gamma counter.

For data set [4] the following is noted: 30 sec pi, rat, ^99m Tc complex; cited from earlier work.
[5] abbreviates: 2 min post-injection, ^99m Tc complex.
The mark [6] stands for this setting: 240 min post-injection (third printed value).
Where [7] appears, read: second of two values, 60 or 240 min not assignable.

Entries after “also recorded” stand apart in the source; their conditions may differ.

Regarding `CC(=NO)C(C)(C)NCCCCNC(C)(C)C(Cn1ccnc1[N+](=O)[O-])=NO` [Compound II], in data set [1], the “hypoxia selectivity / hypoxic/oxic ratio / hypoxic retention (in words)” value was “significantly greater than seen for other ^99m Tc test agents and ^123 I-IAZA; also recorded: greater than that for ^99m Tc-PnAO; also recorded: at least equivalent to ^123 I-IAZA”; the “Hypoxic/Oxic Ratio (H/O)” value is reported as 28; the “normalised hypoxic retention, times greater than ^3 H misonidazole” value was “at least 2 times”; the “Normalised Hypoxic Retention” value was 5.1. In data set [2], the “Xanthine oxidase reduction test result” value is “positive”. In data set [3] (2 min post-injection), this compound gave a Bladder/Urine of 1.0 percent injected dose, a Blood of 8.4 percent injected dose, a Gut of 13.4 percent injected dose and a Kidney of 13.1 percent injected dose. The Liver in data set [3] (2 min post-injection) was found to be 15.5 percent injected dose. The same compound yielded a Muscle in data set [3] (setting [5]) of 26.1 percent injected dose. In data set [3] (60 min post-injection), this compound yielded a Gut of 40.0 percent injected dose and a Muscle of 6.6 percent injected dose. For the same compound, the Muscle in data set [3] (setting [6]) was found to be 3.1 percent injected dose. In data set [3] (240 min post-injection), this compound came in with a Gut of 49.9 percent injected dose. In data set [3] (setting [7]), this compound registered a Blood of 1.3 percent injected dose, a Kidney of 1.4 percent injected dose and a Liver of 11.4 percent injected dose.

`CC(=NO)C(C)(C)NCCCCNC(C)(C)C(C)=NO` [Compound I, 4,9-diaza-3,3,10,10-tetramethyldodecan-2,11',-dione dioxime]: in data set [1], the “hypoxia selectivity / hypoxic/oxic ratio / hypoxic retention (in words)” value was “significantly greater than seen for other ^99m Tc test agents and ^123 I-IAZA; also recorded: greater than that for ^99m Tc-PnAO; also recorded: at least equivalent to ^123 I-IAZA; also recorded: significantly greater hypoxic cell selectivity than the corresponding nitroimidazole conjugate”; the “Hypoxic/Oxic Ratio (H/O)” value is listed as 54; the “normalised hypoxic retention, times greater than ^3 H misonidazole” value is on record as “at least 2 times”; the “Normalised Hypoxic Retention” value amounted to 2.2. In data set [4], the brain uptake is reported as 0.12 % injected dose. In addition, in data set [2], the “Xanthine oxidase reduction test result” value was “positive”. In addition, in data set [3] (2 min post-injection), the Bladder/Urine was 0.6 percent injected dose, the Blood is on record as 9.7 percent injected dose, the Gut was found to be 11.2 percent injected dose and the Kidney turned out to be 7.5 percent injected dose. The compound further had a Liver in data set [3] (2 min post-injection) of 10.6 percent injected dose. The compound further had a Muscle in data set [3] (setting [5]) of 35.2 percent injected dose. In data set [3] (60 min post-injection), this compound showed a Gut of 22.3 percent injected dose and a Muscle of 12.5 percent injected dose. The Muscle in data set [3] (setting [6]) is 3.5 percent injected dose. Moreover, the Gut in data set [3] (240 min post-injection) came out at 24.4 percent injected dose. In data set [3] (setting [7]), this compound displayed a Blood of 2.4 percent injected dose, a Kidney of 5.6 percent injected dose and a Liver of 9.1 percent injected dose.

As to `CC(=NO)C(C)(C)NCCCNC(C)(C)C(Cn1ccnc1[N+](=O)[O-])=NO` [Compound V, 3,3,9,9-Tetramethyl-1-(2-nitro-1H-imidazo-1-yl)-4,8-diazaundecane-2,10-dione dioxime, reference compound], in data set [1], the “Hypoxic/Oxic Ratio (H/O)” value is reported as 10 and the “Normalised Hypoxic Retention” value is recorded as 8.4. Further, in data set [2], the “Xanthine oxidase reduction test result” value is “positive”. In data set [3] (2 min post-injection), this compound registered a Bladder/Urine of 0.3 percent injected dose, a Blood of 7.2 percent injected dose, a Gut of 11.1 percent injected dose and a Kidney of 4.1 percent injected dose. In data set [3] (2 min post-injection), the Liver was 25.1 percent injected dose. The same compound returned a Muscle in data set [3] (setting [5]) of 29.6 percent injected dose. Also, in data set [3] (60 min post-injection), the Gut is 45.9 percent injected dose and the Muscle turned out to be 4.2 percent injected dose. The Muscle in data set [3] (setting [6]) worked out at 2.4 percent injected dose. For the same compound, the Gut in data set [3] (240 min post-injection) is on record as 59.3 percent injected dose. In data set [3] (setting [7]), this compound had a Blood of 4.2 percent injected dose, a Kidney of 3.2 percent injected dose and a Liver of 21.5 percent injected dose.

For the compound `COCC(=NO)C(C)(COC)NCCCCNC(C)(COC)C(COC)=NO` (centres unmarked) [Compound XV, 3,10-Bis(methoxymethyl)-4,9-diaza-1,12-dimethoxy-3,10-dimethyldodecan-2,11-dione dioxime], in data set [1], the “Hypoxic/Oxic Ratio (H/O)” value was 1.2 and the “Normalised Hypoxic Retention” value is listed as 1.4. In data set [3] (2 min post-injection), this compound gave a Bladder/Urine of 1.2 percent injected dose, a Blood of 12.8 percent injected dose, a Gut of 9.5 percent injected dose and a Kidney of 14.2 percent injected dose. In data set [3] (2 min post-injection), this compound showed a Liver of 10.2 percent injected dose. Further, the Muscle in data set [3] (setting [5]) is 27.4 percent injected dose. In data set [3] (60 min post-injection), this compound returned a Gut of 21.3 percent injected dose and a Muscle of 5.7 percent injected dose. The compound also came in with a Muscle in data set [3] (setting [6]) of 1.9 percent injected dose. In data set [3] (240 min post-injection), this compound came in with a Gut of 32.1 percent injected dose. For the same compound, in data set [3] (setting [7]), the Blood worked out at 1.7 percent injected dose, the Kidney is reported as 6.2 percent injected dose and the Liver was found to be 6.3 percent injected dose.

`CC(=NO)C(C)(C)NCCCCCNC(C)(C)C(Cn1ccnc1[N+](=O)[O-])=NO` [Compound IV, 3,3,11,11-tetramethyl-1-(2-nitro-1H-imidazo-1-yl)-4,10-diazatridecan-2,12-dione dioxime]: in data set [1], the “hypoxia selectivity / hypoxic/oxic ratio / hypoxic retention (in words)” value is “very little hypoxia selectivity”, the “Hypoxic/Oxic Ratio (H/O)” value was determined as 2.4 and the “Normalised Hypoxic Retention” value is given as 0.49. Moreover, the “Xanthine oxidase reduction test result” value in data set [2] is on record as “positive”. Besides, in data set [3] (2 min post-injection), the Bladder/Urine is reported as 0.4 percent injected dose, the Blood was determined as 10.6 percent injected dose, the Gut worked out at 13.7 percent injected dose and the Kidney is 12.1 percent injected dose. The Liver in data set [3] (2 min post-injection) turned out to be 15.6 percent injected dose. In addition, the Muscle in data set [3] (setting [5]) is reported as 24.3 percent injected dose. In data set [3] (60 min post-injection), this compound registered a Gut of 50.9 percent injected dose and a Muscle of 8.2 percent injected dose. In data set [3] (setting [6]), this compound came in with a Muscle of 2.0 percent injected dose. For the same compound, the Gut in data set [3] (240 min post-injection) is 60.0 percent injected dose. Also, in data set [3] (setting [7]), the Blood amounted to 1.0 percent injected dose, the Kidney was determined as 2.7 percent injected dose and the Liver was found to be 2.5 percent injected dose.

Consider `CC(C)(C=NO)NCCCCNC(C)(C)C(Cn1ccnc1[N+](=O)[O-])=NO` [Compound XII, 3,8-diaza-10-hydroxyimino-11-(2-nitro-1-imidazolyl)-2,2,9,9-tetramethylundecanal oxime], for which, in data set [1], the “hypoxia selectivity / hypoxic/oxic ratio / hypoxic retention (in words)” value is “little or no effect on both the hypoxic/oxic ratio and normalised hypoxic retention”; the “Hypoxic/Oxic Ratio (H/O)” value amounted to 9.5; the “Normalised Hypoxic Retention” value was 1.9. Besides, in data set [3] (2 min post-injection), the Bladder/Urine stood at 1.2 percent injected dose, the Blood stood at 10.8 percent injected dose, the Gut is on record as 13.4 percent injected dose and the Kidney is listed as 13.3 percent injected dose. The Liver in data set [3] (2 min post-injection) was found to be 16.0 percent injected dose. Also, the Muscle in data set [3] (setting [5]) was determined as 23.9 percent injected dose. In data set [3] (60 min post-injection), this compound yielded a Gut of 31.9 percent injected dose and a Muscle of 8.2 percent injected dose. The Muscle in data set [3] (setting [6]) was 5.2 percent injected dose. The compound also came in with a Gut in data set [3] (240 min post-injection) of 35.5 percent injected dose. In data set [3] (setting [7]), this compound came in with a Blood of 2.0 percent injected dose, a Kidney of 5.5 percent injected dose and a Liver of 11.0 percent injected dose.

The record behind these values is US5997843A, “Radiometal complexes that localise in hypoxic tissue” (priority 1993, dated 1999).
